Measured values reported in the supplement of paper PMC13380429.

What was measured:
Details in all cases: 72 h
[1] = test system: Calu-3; test: relative viability EC50 (midpoint between 100% and the lowest measured viability); higher = less toxic
[2] = test system: Vero E6; test: as above
[3] = test system: U2OS; test: as above
[4] = test system: HepG2; test: as above
[5] = test system: Caco-2; test: as above
[6] = test system: Calu-3; test: cell viability relative to DMSO; higher = less toxic
[7] = test system: Vero E6; test: as above
[8] = test system: U2OS; test: as above
[9] = test system: HepG2; test: as above
[10] = test system: Caco-2; test: as above
[11] = test system: Calu-3; test: drug sensitivity score (DSS) for viability; higher = more toxic; extreme values may be limits of the assay
[12] = test system: Vero E6; test: as above
[13] = test system: U2OS; test: as above
[14] = test system: HepG2; test: as above
[15] = test system: Caco-2; test: as above

Row | SMILES | relative viability EC50 [1] [µM] | relative viability EC50 [2] [µM] | relative viability EC50 [3] [µM] | relative viability EC50 [4] [µM] | relative viability EC50 [5] [µM] | cell viability ([6]; 1 nM) [%] | cell viability ([6]; 10 nM) [%] | cell viability ([6]; 100 nM) [%] | cell viability ([6]; 1000 nM) [%] | cell viability ([6]; 10000 nM) [%] | cell viability ([7]; 1 nM) [%] | cell viability ([7]; 10 nM) [%] | cell viability ([7]; 100 nM) [%] | cell viability ([7]; 1000 nM) [%] | cell viability ([7]; 10000 nM) [%] | cell viability ([8]; 1 nM) [%] | cell viability ([8]; 10 nM) [%] | cell viability ([8]; 100 nM) [%] | cell viability ([8]; 1000 nM) [%] | cell viability ([8]; 10000 nM) [%] | cell viability ([9]; 1 nM) [%] | cell viability ([9]; 10 nM) [%] | cell viability ([9]; 100 nM) [%] | cell viability ([9]; 1000 nM) [%] | cell viability ([9]; 10000 nM) [%] | cell viability ([10]; 1 nM) [%] | cell viability ([10]; 10 nM) [%] | cell viability ([10]; 100 nM) [%] | cell viability ([10]; 1000 nM) [%] | cell viability ([10]; 10000 nM) [%] | drug sensitivity score [11] | drug sensitivity score [12] | drug sensitivity score [13] | drug sensitivity score [14] | drug sensitivity score [15]
1 | CC(C)[C@H]1[C@@H]2CC[C@@H](C2)[C@@H]1N | > 10 | > 10 | > 10 | > 10 | > 10 | 102 | 99.7 | 98.6 | 96 | 104 | 89.6 | 99.3 | 88.5 | 95.3 | 108 | 103 | 102 | 98 | 93.6 | 92.1 | 89.5 | 95 | 93.6 | 97.4 | 90.1 | 96.8 | 98.9 | 106 | 100 | 83.9 | 0 | 0 | 0 | 0 | 0.3
2 | CCC(=O)c1cc(-c2ccc(Cl)cc2)n(-c2ccc(S(N)(=O)=O)cc2)c1C | > 10 | > 10 | > 10 | > 10 | > 10 | 96.6 | 97.4 | 103 | 102 | 103 | 103 | 104 | 98.4 | 101 | 91.2 | 103 | 99.6 | 99.3 | 96.4 | 102 | 105 | 102 | 102 | 122 | 91.5 | 101 | 91.1 | 107 | 96.5 | 89.7 | 0 | 0 | 0 | 0 | 0
3 | CCCC[P+](CCCC)(CCCC)Cc1ccc(NC(=O)[C@H](Cc2ccc3ccccc3c2)N/C(=N/C2CCCCC2)NC2CCCCC2)cc1 | > 10 | > 10 | > 10 | > 10 | > 10 | 94.7 | 91.2 | 97.5 | 97.4 | 86.2 | 102 | 97.7 | 107 | 100 | 90.7 | 98.7 | 99.7 | 96.5 | 96.6 | 88.9 | 95.5 | 107 | 117 | 97.3 | 88.5 | 90.8 | 100 | 87.9 | 102 | 81.4 | 0 | 0 | 0 | 0.1 | 0.4
4 | CCCCc1ccc(NS(=O)(=O)c2ccc(F)cc2)cc1 | > 10 | > 10 | > 10 | > 10 | > 10 | 93.2 | 87.6 | 100 | 98.5 | 102 | 101 | 101 | 99.9 | 99.1 | 96.2 | 97.4 | 96.2 | 99 | 101 | 100 | 101 | 114 | 86.6 | 99.4 | 86.5 | 94.9 | 87.2 | 98.6 | 93.3 | 88.5 | 0 | 0 | 0 | 1.6 | 0
5 | CCCc1c(OCC(O)COc2ccc3c(=O)cc(C(=O)O)oc3c2CCC)ccc(C(C)=O)c1O (stereo not given) | > 10 | > 10 | > 10 | > 10 | > 10 | 107 | 90.8 | 99.7 | 102 | 109 | 102 | 105 | 97.2 | 97.9 | 89.6 | 104 | 95.5 | 102 | 97.4 | 98.9 | 99.8 | 107 | 96.9 | 103 | 92.4 | 99.1 | 92.4 | 93.6 | 102 | 95 | 0 | 0 | 0 | 0 | 0
6 | CCOC(=O)[C@@H](C)Oc1cccc2c(=O)n(CC(=O)Nc3ccc4c(c3)OCCO4)ccc12 | > 10 | > 10 | > 10 | > 10 | > 10 | 92.5 | 88.6 | 80.8 | 95.5 | 89.8 | 101 | 99.4 | 99 | 98.5 | 99.1 | 98.3 | 101 | 95.8 | 105 | 88.9 | 106 | 92.7 | 98.6 | 91.4 | 102 | 90.5 | 113 | 95.5 | 101 | 83.5 | 0 | 0 | 0 | 0 | 0.3
7 | CNc1ncc2cc(-c3cc(NC(=O)NCCC(C)(C)C)c(F)cc3C)c(C)nc2n1 | 1.34 | 0.915 | 1.67 | 0.189 | 1.09 | 90.9 | 106 | 106 | 75.5 | 24.6 | 96.6 | 103 | 95.1 | 59.2 | 22.3 | 104 | 104 | 97.9 | 82.3 | 17.6 | 111 | 98.9 | 78.2 | 12.5 | 8.3 | 101 | 97.9 | 99.1 | 71.1 | 35.7 | 7.7 | 9.1 | 7.4 | 18.9 | 7.2
8 | COc1cc(Br)c(S(=O)(=O)Nc2ccc(C(F)(F)F)c(O[C@@H]3CCN(C)C3)c2)cc1OC | > 10 | > 10 | > 10 | > 10 | > 10 | 103 | 94.7 | 99.3 | 98.1 | 104 | 91.5 | 101 | 99 | 103 | 94.9 | 105 | 96.3 | 95 | 98.3 | 96.6 | 85.4 | 107 | 93.3 | 96.7 | 91.2 | 102 | 100 | 101 | 95.9 | 95.9 | 0 | 0 | 0 | 0 | 0
9 | COc1cc2c(Nc3ccc(NC(=O)c4ccccc4)cc3)ncnc2cc1OCCCN1CCOCC1 | > 10 | > 10 | > 10 | > 10 | > 10 | 95.2 | 95.5 | 96.9 | 79.4 | 99.6 | 99.7 | 101 | 101 | 97.3 | 108 | 105 | 98.3 | 101 | 103 | 102 | 102 | 107 | 96.4 | 108 | 109 | 99.6 | 96.8 | 106 | 102 | 108 | 0 | 0 | 0 | 0 | 0
10 | COc1ncc(-c2ccc3c(Nc4cc(Oc5cc(F)cc(F)c5)cc(C(=O)O)c4)c(S(=O)(=O)NC4CC4)cnc3c2)c(OC)n1 | > 10 | > 10 | > 10 | > 10 | > 10 | 95.3 | 107 | 87.9 | 96.3 | 102 | 101 | 101 | 99.9 | 104 | 101 | 104 | 104 | 98.8 | 93.2 | 99.8 | 97 | 107 | 96.8 | 101 | 85.6 | 103 | 100 | 85 | 92.2 | 97.5 | 0 | 0 | 0 | 0.2 | 0
11 | CS(=O)(=O)Nc1ccc(Cc2noc(-c3ccc4[nH]cc(CCN)c4c3)n2)cc1 | > 10 | > 10 | > 10 | > 10 | > 10 | 104 | 101 | 102 | 90.2 | 103 | 98.3 | 105 | 100 | 101 | 106 | 98.6 | 96.9 | 102 | 99.1 | 98.8 | 93.8 | 116 | 91.2 | 95.8 | 98 | 97.9 | 101 | 105 | 98.5 | 104 | 0 | 0 | 0 | 0 | 0
12 | C[C@@H](Oc1ccc(Cl)cc1)c1ccnc2ncnn12 | > 10 | > 10 | > 10 | > 10 | > 10 | 118 | 97.6 | 100 | 89.7 | 95 | 96.2 | 97.7 | 90.1 | 96.2 | 106 | 95.8 | 94.3 | 99.3 | 99.9 | 99.2 | 95 | 102 | 92.7 | 96.3 | 107 | 97.2 | 91.7 | 94 | 109 | 93 | 0 | 0 | 0 | 0 | 0
13 | C[C@@H]1CCN(C(=O)CC#N)C[C@@H]1N(C)c1ncnc2[nH]ccc12 | > 10 | > 10 | > 10 | > 10 | > 10 | 96.3 | 97.5 | 106 | 112 | 110 | 98.6 | 94.8 | 97 | 98.3 | 96.1 | 101 | 103 | 101 | 103 | 96.9 | 111 | 94.4 | 105 | 97.7 | 108 | 102 | 103 | 94.4 | 96.9 | 104 | 0 | 0 | 0 | 0 | 0
14 | Cc1ccc2c(=O)c3ccccc3n(CCCN)c2c1C | 1.6 | 1.12 | 3.33 | 0.777 | 1.32 | 97.8 | 102 | 104 | 81.3 | 20.6 | 96.2 | 99.9 | 91.7 | 57 | 3.7 | 100 | 102 | 96.9 | 103 | 1.3 | 99.3 | 94.2 | 102 | 38.2 | 5.4 | 100 | 92.8 | 91.6 | 72.7 | 28.5 | 7.3 | 10.3 | 5.3 | 12.4 | 7
